Data: paper PMC6683251, “Flavanol Bioavailability in Two Cocoa Products with Different Phenolic Content. A Comparative Study in Humans” (Nutrients, 2019)

assay: Urinary excretion of flavanol metabolites (0-24 h) after a single serving of soluble cocoa product (HPLC-ESI-QToF-MS); assay type: in vivo, human; conditions: CC intervention, basal urine (−2–0 h, before intake), mean ± SD, n = 13
Protocol: They were non-smoker, non-vegetarian, non-pregnant women, who were not taking any medication or nutritional supplements, and were not suffering from any chronic pathology or gastrointestinal disorder. The sample size was estimated attending to similar previous bioavailability studies. The volunteers gave their informed consent prior to participation.
The present randomized, single-blind study was carried out at the Human Nutrition Unit (HNU) of the Institute of Food Science, Technology and Nutrition (ICTAN). Volunteers attended the HNU on two days, separated by two weeks. Three days previous to each visit, participants were instructed not to consume cocoa products (chocolate, soluble cocoa, etc.), juices, tea, wine, grape must, oranges, tangerines, apples, grapes, strawberries or other berries, beets, onions, soybeans and soy derivatives.
On each intervention day, volunteers arrived at the HNU after an overnight fast. […] The soluble cocoa products, either 15 g of CC or 25 g CC-PP, were dissolved in 200 mL of semi-skimmed milk following manufacturer’s preparation instructions. Plasma was separated by centrifugation (10 min, 3000 rpm, 4 °C) and stored at −80 °C until further analysis. […] A polyphenol-free breakfast, lunch and afternoon snack were provided 2 h, 4 h, and 8 h after consumption of cocoa products, and water and isotonic beverages were available ad libitum.
Urine samples were diluted with an equivalent volume of Milli-Q water (50%) and centrifuged at 14000 rpm (10 min, 4 °C). Supernatants were filtered (0.45 μm pore-size cellulose-acetate membrane filters) and a 5 µL aliquot was directly injected into the LC-ESI-QToF-MS equipment.
The test samples, either 30 μL of the plasma extract or 5 μL of diluted urine, were injected and separated using a mobile phase consisting of Milli-Q water (phase A) and acetonitrile (phase B), both containing 0.1% formic acid, at a flow rate of 0.3 mL/min. The mobile phase was initially programmed with 90% of solvent A and 10% of B. The elution program increased to 30% of solvent B in 10 min. Then, the initial conditions (10% solvent B) were recovered in 5 min and maintained for 5 min.
Due to the lack of standards for certain phase II metabolites, they were tentatively quantified using the calibration curves of their corresponding phenolic precursors. […] The rest of microbial metabolites identified, derivatives of hydroxyphenylpropionic, hydroxyphenylacetic, hydroxybenzoic and hippuric acids, were quantified using their respective commercially available standards. Urine concentration of the excreted metabolites was normalized by the volume excreted in each studied interval. […] Calibration curves were freshly prepared in a pool of both plasma and urine due to matrix effects.
Statistical analyses were carried out using the program SPSS (version 23.0, SPSS, Inc., IBM Company, New York, NY, USA). Significant differences between metabolites excreted in urine after consumption of CC and CC-PP cocoa products were evaluated based on non-parametric Wilcoxon test (p < 0.05). To determine the absorption and elimination of epicatechin metabolites after consumption of the soluble cocoa products, metabolite nutrikinetics were studied using the pharmacokinetic functions of Microsoft Excel, calculating the maximum concentration (Cmax), area under curve (AUC) and time to reach maximum concentration (Tmax). Data are expressed as mean ± standard deviation.

| Structure (SMILES) | Excreted in urine, Basal |
| --- | --- |
| O=C1CCC(Cc2ccc(O[C@@H]3O[C@H](C(=O)O)[C@@H](O)[C@H](O)[C@H]3O)c(O)c2)O1 (stereo partly drawn) [HPVL-4′-glucuronide, 5-(3′-Hydroxyphenyl)-γ-valerolactone-4′-glucuronide] | <L.Q. |
| O=C(O)Cc1cccc(O)c1 [Hydroxyphenylacetic acid, 3-Hydroxyphenylacetic acid] | 0.369 ± 0.077 µmol |
| O=C(O)CCc1ccc(O)cc1 [Hydroxyphenylpropionic acid] | 0.118 ± 0.023 µmol |
| COc1ccc(/C=C/C(=O)O)cc1O [Isoferulic acid] | 0.170 ± 0.137 µmol |

same assay, conditions: CC-PP intervention, basal urine (−2–0 h, before intake), mean ± SD, n = 13

| Structure (SMILES) | Excreted in urine, Basal |
| --- | --- |
| O=C1CCC(Cc2ccc(O[C@@H]3O[C@H](C(=O)O)[C@@H](O)[C@H](O)[C@H]3O)c(O)c2)O1 (stereo partly drawn) [HPVL-4′-glucuronide, 5-(3′-Hydroxyphenyl)-γ-valerolactone-4′-glucuronide] | <L.Q. |
| O=C(O)Cc1cccc(O)c1 [Hydroxyphenylacetic acid, 3-Hydroxyphenylacetic acid] | 0.585 ± 0.070 µmol |
| O=C(O)CCc1ccc(O)cc1 [Hydroxyphenylpropionic acid] | 0.074 ± 0.013 µmol |
| COc1ccc(/C=C/C(=O)O)cc1O [Isoferulic acid] | <L.Q. |
| O=C1CCC(Cc2cccc(OC3OC(C(=O)O)C(O)C(O)C3O)c2)O1 (stereo not drawn) [PVL-3′glucuronide, 5-Phenyl-γ-valerolactone-3′-glucuronide] | <L.Q. |

same assay, conditions: after CC (19.80 mg flavanols), 24 h urine, mean ± SD, n = 13

| Structure (SMILES) | Excreted in urine, Total |
| --- | --- |
| O=C1CCC(Cc2cccc(O)c2)O1 (stereo not drawn) [HPVL, 5-(3′-Hydroxyphenyl)-γ-valerolactone] | <L.Q. * |
| O=C(O)Cc1cccc(O)c1 [Hydroxyphenylacetic acid, 3-Hydroxyphenylacetic acid] | 2.208 ± 0.328 µmol |
| O=C(O)CCc1ccc(O)cc1 [Hydroxyphenylpropionic acid] | 0.883 ± 0.154 µmol |
| COc1ccc(/C=C/C(=O)O)cc1O [Isoferulic acid] | 0.522 ± 0.290 µmol |
| O=C1CCC(Cc2cccc(OC3OC(C(=O)O)C(O)C(O)C3O)c2)O1 (stereo not drawn) [PVL-3′glucuronide, 5-Phenyl-γ-valerolactone-3′-glucuronide] | 0.438 ± 0.255 µmol |

same assay, conditions: after CC (19.80 mg flavanols), mean ± SD, n = 13

| Structure (SMILES) | Excreted in urine, 4–8 h | Excreted in urine, 8–12 h | Excreted in urine, 12–24 h | Excreted in urine, 0–4 h |
| --- | --- | --- | --- | --- |
| O=C1CCC(Cc2cccc(O)c2)O1 (stereo not drawn) [HPVL, 5-(3′-Hydroxyphenyl)-γ-valerolactone] | <L.Q. | <L.Q. | <L.Q. |  |
| O=C1CCC(Cc2ccc(O[C@@H]3O[C@H](C(=O)O)[C@@H](O)[C@H](O)[C@H]3O)c(O)c2)O1 (stereo partly drawn) [HPVL-4′-glucuronide, 5-(3′-Hydroxyphenyl)-γ-valerolactone-4′-glucuronide] |  | <L.Q. | <L.Q. | <L.Q. |
| O=C(O)Cc1cccc(O)c1 [Hydroxyphenylacetic acid, 3-Hydroxyphenylacetic acid] | 0.605 ± 0.092 µmol | 0.225 ± 0.052 µmol | 0.600 ± 0.100 µmol | 0.408 ± 0.084 µmol |
| O=C(O)CCc1ccc(O)cc1 [Hydroxyphenylpropionic acid] | 0.259 ± 0.043 µmol | 0.077 ± 0.018 µmol | 0.203 ± 0.025 µmol | 0.226 ± 0.046 µmol |
| COc1ccc(/C=C/C(=O)O)cc1O [Isoferulic acid] | 0.096 ± 0.040 µmol | 0.088 ± 0.069 µmol | 0.082 ± 0.016 µmol | 0.086 ± 0.028 µmol |
| O=C1CCC(Cc2cccc(OC3OC(C(=O)O)C(O)C(O)C3O)c2)O1 (stereo not drawn) [PVL-3′glucuronide, 5-Phenyl-γ-valerolactone-3′-glucuronide] | 0.233 ± 0.155 µmol | 0.126 ± 0.078 µmol | 0.079 ± 0.022 µmol | <L.Q. |

same assay, conditions: after CC-PP (68.25 mg flavanols), 24 h urine, mean ± SD, n = 13

| Structure (SMILES) | Excreted in urine, Total [µmol] |
| --- | --- |
| O=C1CCC(Cc2cccc(O)c2)O1 (stereo not drawn) [HPVL, 5-(3′-Hydroxyphenyl)-γ-valerolactone] | 0.104 ± 0.041 |
| O=C1CCC(Cc2ccc(O[C@@H]3O[C@H](C(=O)O)[C@@H](O)[C@H](O)[C@H]3O)c(O)c2)O1 (stereo partly drawn) [HPVL-4′-glucuronide, 5-(3′-Hydroxyphenyl)-γ-valerolactone-4′-glucuronide] | 0.961 ± 0.151 |
| O=C(O)Cc1cccc(O)c1 [Hydroxyphenylacetic acid, 3-Hydroxyphenylacetic acid] | 2.862 ± 0.654 |
| O=C(O)CCc1ccc(O)cc1 [Hydroxyphenylpropionic acid] | 1.204 ± 0.243 |
| COc1ccc(/C=C/C(=O)O)cc1O [Isoferulic acid] | 0.686 ± 0.356 |
| O=C1CCC(Cc2cccc(OC3OC(C(=O)O)C(O)C(O)C3O)c2)O1 (stereo not drawn) [PVL-3′glucuronide, 5-Phenyl-γ-valerolactone-3′-glucuronide] | 1.316 ± 0.648 |

same assay, conditions: after CC-PP (68.25 mg flavanols), mean ± SD, n = 13

| Structure (SMILES) | Excreted in urine, 0–4 h | Excreted in urine, 4–8 h [µmol] | Excreted in urine, 8–12 h | Excreted in urine, 12–24 h |
| --- | --- | --- | --- | --- |
| O=C1CCC(Cc2cccc(O)c2)O1 (stereo not drawn) [HPVL, 5-(3′-Hydroxyphenyl)-γ-valerolactone] | <L.Q. | 0.104 ± 0.041 | <L.Q. | <L.Q. |
| O=C1CCC(Cc2ccc(O[C@@H]3O[C@H](C(=O)O)[C@@H](O)[C@H](O)[C@H]3O)c(O)c2)O1 (stereo partly drawn) [HPVL-4′-glucuronide, 5-(3′-Hydroxyphenyl)-γ-valerolactone-4′-glucuronide] | <L.Q. | 0.330 ± 0.111 | 0.550 ± 0.015 µmol | 0.081 ± 0.025 µmol |
| O=C(O)Cc1cccc(O)c1 [Hydroxyphenylacetic acid, 3-Hydroxyphenylacetic acid] | 0.631 ± 0.140 µmol | 0.678 ± 0.231 | 0.434 ± 0.070 µmol | 0.534 ± 0.143 µmol |
| O=C(O)CCc1ccc(O)cc1 [Hydroxyphenylpropionic acid] | 0.350 ± 0.038 µmol | 0.356 ± 0.076 | 0.140 ± 0.041 µmol | 0.284 ± 0.075 µmol |
| COc1ccc(/C=C/C(=O)O)cc1O [Isoferulic acid] | 0.164 ± 0.044 µmol | 0.160 ± 0.066 | 0.152 ± 0.094 µmol | 0.210 ± 0.152 µmol |
| O=C1CCC(Cc2cccc(OC3OC(C(=O)O)C(O)C(O)C3O)c2)O1 (stereo not drawn) [PVL-3′glucuronide, 5-Phenyl-γ-valerolactone-3′-glucuronide] | 0.108 ± 0.045 µmol | 0.521 ± 0.191 | 0.179 ± 0.063 µmol | 0.508 ± 0.349 µmol |
